This passage reports melting point results from a melting point compilation (Tetko et al.; mined from patent text by program, amines drawn as free bases though some values may be those of a salt).

Each structure is given as a SMILES string.

A word on the melting point: it is the temperature of the solid-liquid transition. As to `O=C1c2ccccc2C(=O)N1SN1C(=O)c2ccccc2C1=O`, the melting point fell in the range of 301 to 315 °C. As for `CCN1C(=O)C(C)(C)C(=O)N(C)c2cc(CCN(CCn3cc(C)c4occc4c3=O)Cc3cc(C)nn3C)ccc21`, the melting point was in the range of 171 to 173 °C.

`CSc1ncc(Cc2cccnc2)c(=O)[nH]1` registered a melting point of 247 to 249 °C.

In turn, `Oc1ccc2sc3ccccc3c2c1` had a melting point of 152 to 155 °C. The molecule `COc1ccccc1N1CCN(CCn2c(=O)[nH]c3sc(Cl)cc3c2=O)CC1` gave a melting point of 228 to 230 °C. `COC(=O)NCC1Cc2cc(Cl)c3ccccc3c2O1` (configuration not stated) gave a melting point of 128 to 130 °C. `CNC(=O)Nc1occ(C(C)(C)C)c1C#N` yielded a melting point of 163 °C. Take `ClCCCCCOc1ccc(Br)c(CCOCc2ccccc2)c1`: the melting point is 54 to 55 °C. The molecule `CCCCCCNc1nc(-c2ccc(F)cc2)c(-c2ccc(S(C)(=O)=O)cc2)s1` yielded a melting point of 161 to 162 °C. Under `CC1(C)OC(=O)Nc2ccc(-c3ccccc3Cl)cc21` stands 181 to 182 °C; under `CCOC(=O)C1C=CC(c2ccccc2)n2c(=O)n(CO)c(=O)n21` (configuration not stated), 129 to 133 °C. In turn, `CN(N)c1ccc(-c2ccc(Cl)cc2)nn1` gave a melting point of 170 to 172 °C. As for `Cc1oc(-c2ccccc2)nc1CCc1ccc(COc2ccccc2CC(=O)O)cc1`, the melting point was in the range of 130 to 131 °C. `Cc1nn(-c2ccccn2)c2[nH]c3ccc(C(F)(F)F)cc3c(=O)c12` showed a melting point of 250 to 251 °C. In turn, `CC(Oc1ccc(NC(=O)NC(=O)c2ccccc2Cl)cc1)c1ccccc1` (configuration not stated) gave a melting point of 166 to 167 °C.

Turning to `COc1ccc(Br)cc1-c1cc(-c2cccc(Br)c2)no1`, the melting point was 156 °C. `CC(=O)NC(C)COC1CCC(c2nc3ccc(OCC4CC4)cc3o2)CC1` (configuration not stated) showed a melting point of 131 to 132 °C. In turn, `COC(=C1C2CC3CC(C2)CC1C3)c1cc(OC)cc(OC(=O)C(C)(C)C)c1` returned a melting point of 159 °C. Turning to `O=C1NC(Cc2cccc(OC(F)(F)C(F)F)c2)C(c2ccc(Oc3ccccc3)cn2)O1` (configuration not stated), the melting point lay within 87 to 88 °C. Under `O=S(=O)(OCC1OC2CC(CC(OS(=O)(=O)c3ccc(Br)cc3)C2)O1)c1ccc(Br)cc1` (configuration not stated) stands 128 °C; under `Oc1cc(Cl)c(Br)c(Cl)c1`, 118 to 120 °C; under `CC(=O)NCc1ccc(CN2CCN(c3ncc([N+](=O)[O-])s3)CC2)cc1`, 151 to 152 °C.

As to `O=C1C=CC(O)(c2ccc(OCCCCl)cc2)O1` (configuration not stated), the melting point was in the range of 219 to 220 °C. In turn, `CCOP(=O)(OCC)c1cccc(C)c1I` had a melting point of 56 to 58 °C. Take `N#CC(=NNc1ccc(C(=O)O)cc1)C(N)=C(C#N)C#N`: the melting point was over 300 °C. Molecule `COc1cc(/C=C/C(=O)CC(=O)C2CC2)ccc1O` had a melting point of 74.5 to 79 °C. The molecule `COC1=C(OC)C(=O)C(CCCCCCCCCC(=O)N[C@H](CCC(=O)OCc2ccccc2)C(N)=O)=C(C)C1=O` had a melting point of 83 to 85 °C. Turning to `COc1cc(CC(=O)O)ccc1OCCc1ccccc1`, the melting point fell in the range of 97 to 100 °C.

In turn, `CN1CCN(c2cccc3ccc(N)cc23)CC1` gave a melting point of 157 to 159 °C. In turn, `Nc1nc2ccccc2c2c1nc(CO)n2Cc1cc(-c2ccc(F)cc2)no1` gave a melting point of 262 to 263 °C. Regarding `CN(c1cccc2cc(C(N)=O)[nH]c12)S(=O)(=O)c1nccs1`, the melting point is 220 to 221 °C. `CCOC(=O)Cc1cc(O)c(C)cc1O` gave a melting point of 134 °C. In the case of `CC(C)(C)c1cccc(S(=O)(=O)n2c(Cc3cccc(C(=O)O)c3)cc3cc(C(F)(F)F)ccc32)c1`, the melting point was 146 °C.

For the molecule `S=C(NCCc1c[nH]cn1)NCCN(Cc1ccc(Cl)c(Cl)c1)c1ccc(Br)cn1`, the melting point fell in the range of 72 to 78 °C. Molecule `O=S1CCOCC1c1ccc(Cl)c(Cl)c1` (configuration not stated) yielded a melting point of 100 to 103 °C. For the molecule `Cc1c(C2CCC(c3ccccc3)(N(C)C)CC2)[nH]c2ccc(OC(F)(F)F)cc12` (configuration not stated), the melting point lay within 219 to 221 °C.

On to `Clc1c(OCCN2CCCCC2)ccc2cc3ccc(OCCN4CCCCC4)c(Cl)c3nc12`, for which the melting point is 173 to 174 °C. As to `CCNC(=O)Cc1ccc2ccn(C3CCN(CCc4ccccc4F)CC3)c2c1`, the melting point was 147 to 149 °C.

Consider `Cc1nn(C)c(C)c1NC(=S)n1ccc2cc(Cl)ccc21`, for which the melting point is 165 to 166 °C. `CCCOc1cc2c(cc1-c1cc(-c3ccc(C(=O)O)cc3)ccc1-c1ccccc1)C(C)(C)CCC2(C)C` registered a melting point of 234 °C.

The molecule `O=C(O)CCCc1ccc(CNC(=O)C2Cc3ccccc3N2S(=O)(=O)c2ccc(-c3cccc(C(F)(F)F)c3)cc2)cc1` (configuration not stated) registered a melting point of 75 °C. In the case of `CCCCCCCCCCCCCCCCCCOc1cc(C(=O)OC)cc(C(=O)OC)c1`, the melting point was in the range of 54 to 55 °C. `CC1CCc2c(N3CCOCC3)c(F)cc3c(=O)c(C(=O)O)cn1c23` (configuration not stated) gave a melting point of 279 to 280 °C.

Take `CC=CC(=O)Nc1n[nH]c2cc(Br)ccc12`: the melting point amounted to 232 °C. Molecule `CC(C)NC(=S)Nc1cccc(-c2ccnc3c(C(=O)c4cccs4)cnn23)c1` showed a melting point of 208 to 210 °C. With `O=C1NCCCN1C1(CO)CCNCC1`, the melting point was determined as 162 °C. In turn, `Cc1cc(C)cc(N2CCN(C(=O)NCC(c3ccccc3)c3ccccc3)CC2)c1` gave a melting point of 174 to 175 °C. In turn, `CON1CCN2C(=O)C(c3cc(C)ccc3C)C(=O)N2CC1` gave a melting point of 167 to 169 °C. As for `CCCC(C)(C)C(=O)O[C@H]1C[C@H](O)C=C2C=C[C@H](C)[C@H](CC[C@@H]3C[C@@H](O)CC(=O)O3)[C@H]21`, the figure is 143 to 144 °C. With `CN(C)/C=C/c1cc(OC2CCN(C(=O)OC(C)(C)C)CC2)ccc1C#N`, the melting point was 135 to 137 °C. Consider `CCOC(=O)c1ncc2c(c1CBr)c1ccccc1n2C(C)=O`, for which the melting point was 188 to 189 °C. Turning to `Cn1cc(CC(SSC(Cc2cn(C)c3ccccc23)C(=O)O)C(=O)O)c2ccccc21` (configuration not stated), the melting point was 158 to 160 °C. As for `CCOC(=O)Cc1nc2cc(Cl)ccc2o1`, the melting point fell in the range of 90 to 91 °C.

In the case of `O=Cc1ccc(-c2ccc(-c3ccc(C=O)o3)cc2)o1`, the melting point was 233 to 234 °C.

The molecule `COC(=O)c1ccc(Cn2c(=O)c3cc(C#CCc4ccc(OC)cc4)ccc3n3cnnc23)cc1` yielded a melting point of 249 °C. The molecule `CCc1ccc2cc(OC)cc(NC(C)CCCN)c2n1` (configuration not stated) returned a melting point of 111 to 114 °C. For `COc1ccc(N2CCN(c3c(C)c(C)c4c(c3C)CC(C)(CC#N)O4)CC2)cc1` (configuration not stated), the melting point fell in the range of 161 to 163 °C. Take `CC1CC(=O)NN=C1c1ccc(-n2cccc2)nc1` (configuration not stated): the melting point is 192 to 193 °C.

As to `CCOC(=O)c1cnn(-c2ccc(F)cc2)c1O`, the melting point fell in the range of 127 to 128 °C. For the molecule `CCC1(CCCCN2CCN(c3cccc(OC)c3)CC2)C(=O)Nc2ccccc21` (configuration not stated), the melting point fell in the range of 123 to 125 °C. Under `COc1ccc2c(c1)N(Cc1ccccc1)C(=O)[C@H]1CCC[C@H]1N2C(=O)CN1C(=O)c2ccccc2C1=O` (relative stereo) stands 244 to 245 °C; under `CCCCc1cc(O)cc(=O)o1`, 110 to 111 °C; under `COc1ccc2c(c1)Sc1cc(OC(C)=O)c3ccccc3c1N2`, 156 to 158 °C. With `O=C(O)C(c1ccccc1)C1CCN(c2ccc([N+](=O)[O-])cc2)CC1` (configuration not stated), the melting point was determined as 216 °C.

In turn, `CC(=O)NC[C@H]1CN(c2ccc(N3CCC(Cc4nnn[nH]4)CC3)c(F)c2)C(=O)O1` gave a melting point of 164 to 166 °C. As for `CC(=O)NCc1ccc(CN2CCN(c3ccncc3)CC2)cc1`, the figure is 164 to 166 °C; as for `Cc1ccc(S(=O)(=O)OCCC2CCN(C(c3ccccc3)(c3ccccc3)c3ccccc3)CC2)cc1`, 176 °C; as for `CC(C)NC(=O)C(O)C(Cc1ccccc1)NC(=O)OC(C)(C)C` (mixture of isomers), 126 to 145 °C. The molecule `CC(=O)Nc1nc2c(Oc3cc(-c4ccc(C(F)(F)F)nc4NC4CCN(C(C)C)C4)ncn3)cccc2s1` (configuration not stated) registered a melting point of 140 to 141 °C. In turn, `CCCCN1CCC[C@H]1CNC(=O)c1cc(Cl)cc2c1OC(C)(C)CN2C` displayed a melting point of 110 to 112 °C.

With `COCCCS(=O)(=O)NC(=O)CCc1cc(OCC2CC2)nn1Cc1ccc(C(F)(F)F)cc1Cl`, the melting point lay in the range of 152 to 154 °C.

The molecule `COCC(c1ccccc1)N(C)Cc1c(-c2ccc(NC(=O)NOC)cc2)sc2c1c(=O)n(-c1ccccc1)c(=O)n2Cc1c(F)cccc1F` (configuration not stated) returned a melting point of 169 to 172 °C. Under `CC(C)N(C(=O)c1ccc(CN2CCOc3cnccc32)c(Br)c1)C1CCCCC1` stands 191 to 192 °C; under `CSCc1ccc(-c2cccnc2)o1`, 67 to 68 °C; under `CC(=O)c1nc(C)cn1-c1cc(C)c2[nH]c(=O)ccc2c1`, 312 to 314 °C.

With `COC(=O)C(C)(C)CCCOc1ccc(NC(=O)C(C)(C)CCCOc2cc(C)ccc2C)cc1`, the melting point was 62 to 63 °C.

`N#Cc1ccc(N=Nc2ccc(OCCO)c(C#N)c2)cc1` registered a melting point of 138 °C. Molecule `CCN(CC)c1ccc(-n2cc(-c3ccc(C4=C(C#N)C(=C(C#N)C#N)OC4(C)C)cc3)nn2)cc1` had a melting point of 265 °C. On to `CCCCNC(=O)Nc1sc2c(c1C#N)CCCC2`, for which the melting point was 170 to 171 °C.

As for `Nc1ccc(-c2nc3c(s2)C(=O)c2ccccc2C3=O)o1`, the melting point was over 260 °C. As for `CN(CCOc1ccc(C=O)cc1)c1nc2ccccc2o1`, the figure is 97 to 98 °C. Molecule `Cc1cccc2sc(-n3nc(CCCO)cc3-c3ccc(Cl)cc3)nc12` gave a melting point of 112 to 114 °C. The molecule `CCOCOCCCOn1cnc2cnc(N)nc21` came in with a melting point of 73 to 74 °C.

`CNC(=S)Nc1cc(SC)ccc1N1CCOCC1` gave a melting point of 132 to 133 °C. For the molecule `CCCCCCCCCCCCCCCCCCOc1ccc(NC(=O)c2ccc(O)cc2)cc1`, the melting point stood at 170 °C.

As for `CC(C)(C)OC(=O)N1CCC(CCc2c3c(nn2C(C)(C)C)c(=O)[nH]c2ccccc23)CC1`, the melting point is 223 to 225 °C.

In turn, `Cc1cc(C)cc(C(=O)N(C)[C@H](Cc2ccccc2)C(=O)N[C@@H](Cc2c[nH]c3ccccc23)C(=O)O)c1` showed a melting point of 91 to 94 °C.
